From ChEMBL document CHEMBL5724914, “Linking interpersonal differences in gut microbiota composition and drug biotransformation activity” (2024)

Assays:
[1] = human gut metagenome, 24 h, 2 µM
[2] = human gut metagenome, 24 h, 2 µM; remark: listed apart in the source
[3] = human gut metagenome, 24 h, 2 µM; remark: listed apart in the source
[4] = (§1) The drug is tested on Z-003 corresponding to pig gut metagenome with ENA study accession number: PRJEB37062 and ENA sample accession number: ERS12561803 for biotransformation under anaerobic condition. The drug concentrations were measured over 9 timepoints collected between 0 and 24 hours of incubation by liquid-chromatography-coupled mass spectrometry (LC–MS); details: 2 µM
[5] = human gut metagenome, 24 h, 2 µM; remark: listed apart in the source
[6] = as §1, with “Z-020” for “Z-003”, “rabbit” for “pig”, “ERS12561819” for “ERS12561803”; details: 2 µM
[7] = as §1, with “WLS-370” for “Z-003”, “human” for “pig”, “ERS12561793” for “ERS12561803”; details: 2 µM
[8] = as §1, with “WLS-220” for “Z-003”, “human” for “pig”, “ERS12561769” for “ERS12561803”; details: 2 µM
[9] = as §1, with “Z-026” for “Z-003”, “to” for “to pig gut”, “ERS12561825” for “ERS12561803”; details: 2 µM
[10] = human gut metagenome, 24 h, 2 µM; remark: listed apart in the source
[11] = human gut metagenome, 24 h, 2 µM; remark: listed apart in the source
[12] = as §1, with “Z-010” for “Z-003”, “to” for “to pig gut”, “ERS12561810” for “ERS12561803”; details: 2 µM
[13] = as §1, with “WLS-240” for “Z-003”, “human” for “pig”, “ERS12561773” for “ERS12561803”; details: 2 µM
[14] = as §1, with “WLS-350” for “Z-003”, “human” for “pig”, “ERS12561789” for “ERS12561803”; details: 2 µM
[15] = as §1, with “Z-027” for “Z-003”, “to” for “to pig gut”, “ERS12561826” for “ERS12561803”; details: 2 µM
[16] = as §1, with “Z-013” for “Z-003”, “rabbit” for “pig”, “ERS12561813” for “ERS12561803”; details: 2 µM
[17] = human gut metagenome, 24 h, 2 µM; remark: listed apart in the source
[18] = human gut metagenome, 24 h, 2 µM; remark: listed apart in the source
[19] = as §1, with “Z-004” for “Z-003”, “to” for “to pig gut”, “ERS12561804” for “ERS12561803”; details: 2 µM
[20] = human gut metagenome, 24 h, 2 µM; remark: listed apart in the source
Also: call rule not given here.

Bacterial Biotransformation [1] | Bacterial Biotransformation [2] | Bacterial Biotransformation [3] | Bacterial Biotransformation [4] | Bacterial Biotransformation [5] | Bacterial Biotransformation [6] | Bacterial Biotransformation [7] | Bacterial Biotransformation [8] | Bacterial Biotransformation [9] | Bacterial Biotransformation [10] | Bacterial Biotransformation [11] | Bacterial Biotransformation [12] | Bacterial Biotransformation [13] | Bacterial Biotransformation [14] | Bacterial Biotransformation [15] | Bacterial Biotransformation [16] | Bacterial Biotransformation [17] | Bacterial Biotransformation [18] | Bacterial Biotransformation [19] | Bacterial Biotransformation [20] | SMILES
Compound NOT metabolized | Compound NOT metabolized | Compound metabolized | Compound metabolized | Compound NOT metabolized | Compound NOT metabolized | Compound NOT metabolized | Compound NOT metabolized | Compound NOT metabolized | Compound NOT metabolized | Compound NOT metabolized | Compound NOT metabolized | Compound NOT metabolized | Compound NOT metabolized | Compound NOT metabolized | Compound NOT metabolized | Compound NOT metabolized | Compound metabolized | Compound NOT metabolized | Compound NOT metabolized | CCOc1ccccc1OCCN[C@H](C)Cc1ccc(OC)c(S(N)(=O)=O)c1.Cl [TAMSULOSIN HYDROCHLORIDE]
Compound metabolized | Compound NOT metabolized | Compound NOT metabolized | Compound NOT metabolized | Compound NOT metabolized | Compound NOT metabolized | Compound NOT metabolized | Compound metabolized | Compound NOT metabolized | Compound NOT metabolized | Compound metabolized | Compound metabolized | Compound metabolized | Compound NOT metabolized | Compound NOT metabolized | Compound NOT metabolized | Compound NOT metabolized | Compound metabolized | Compound NOT metabolized | Compound metabolized | COc1cc2nc(N3CCN(C(=O)C4CCCO4)CC3)nc(N)c2cc1OC (stereo not given) [TERAZOSIN]
Compound metabolized | Compound NOT metabolized | Compound metabolized | Compound NOT metabolized | Compound NOT metabolized | Compound NOT metabolized | Compound NOT metabolized | Compound NOT metabolized | Compound NOT metabolized | Compound NOT metabolized | Compound NOT metabolized | Compound NOT metabolized | Compound metabolized | Compound NOT metabolized | Compound NOT metabolized | Compound NOT metabolized | Compound NOT metabolized | Compound metabolized | Compound NOT metabolized | Compound NOT metabolized | c1ccc2[nH]c(-c3cscn3)nc2c1 [THIABENDAZOLE]

Further lines, the compound ahead of its results:

SMILES | Bacterial Biotransformation [1] | Bacterial Biotransformation [2] | Bacterial Biotransformation [3] | Bacterial Biotransformation [4] | Bacterial Biotransformation [5] | Bacterial Biotransformation [6] | Bacterial Biotransformation [7] | Bacterial Biotransformation [8] | Bacterial Biotransformation [9] | Bacterial Biotransformation [10] | Bacterial Biotransformation [11] | Bacterial Biotransformation [12] | Bacterial Biotransformation [13] | Bacterial Biotransformation [14] | Bacterial Biotransformation [15] | Bacterial Biotransformation [16] | Bacterial Biotransformation [17] | Bacterial Biotransformation [18] | Bacterial Biotransformation [19] | Bacterial Biotransformation [20]
CCN(C)C(=O)Oc1cccc([C@H](C)N(C)C)c1.O=C(O)C(O)C(O)C(=O)O [RIVASTIGMINE TARTRATE] | Compound NOT metabolized | Compound NOT metabolized | Compound NOT metabolized | Compound NOT metabolized | Compound NOT metabolized | Compound NOT metabolized | Compound NOT metabolized | Compound NOT metabolized | Compound NOT metabolized | Compound NOT metabolized | Compound NOT metabolized | Compound NOT metabolized | Compound metabolized | Compound NOT metabolized | Compound NOT metabolized | Compound NOT metabolized | Compound NOT metabolized | Compound NOT metabolized | Compound NOT metabolized | Compound NOT metabolized
CCCN(CCC)CCc1cccc2c1CC(=O)N2 [ROPINIROLE] | Compound metabolized | Compound NOT metabolized | Compound metabolized | Compound metabolized | Compound NOT metabolized | Compound metabolized | Compound NOT metabolized | Compound metabolized | Compound NOT metabolized | Compound NOT metabolized | Compound NOT metabolized | Compound NOT metabolized | Compound NOT metabolized | Compound NOT metabolized | Compound NOT metabolized | Compound NOT metabolized | Compound NOT metabolized | Compound metabolized | Compound NOT metabolized | Compound NOT metabolized
CN[C@H]1CC[C@@H](c2ccc(Cl)c(Cl)c2)c2ccccc21 [SERTRALINE] | Compound metabolized | Compound NOT metabolized | Compound metabolized | Compound metabolized | Compound metabolized | Compound metabolized | Compound metabolized | Compound metabolized | Compound metabolized | Compound metabolized | Compound metabolized | Compound metabolized | Compound NOT metabolized | Compound NOT metabolized | Compound metabolized | Compound NOT metabolized | Compound metabolized | Compound metabolized | Compound metabolized | Compound metabolized
O=C(O)CCC(=O)O.O=C(O[C@H]1CN2CCC1CC2)N1CCc2ccccc2[C@@H]1c1ccccc1 [SOLIFENACIN SUCCINATE] | Compound metabolized | Compound metabolized | Compound metabolized | Compound metabolized | Compound NOT metabolized | Compound metabolized | Compound metabolized | Compound NOT metabolized | Compound NOT metabolized | Compound metabolized | Compound metabolized | Compound metabolized | Compound metabolized | Compound metabolized | Compound NOT metabolized | Compound NOT metabolized | Compound NOT metabolized | Compound metabolized | Compound metabolized | Compound metabolized
O=C(CCCN1CCC2(CC1)C(=O)NCN2c1ccccc1)c1ccc(F)cc1 [SPIPERONE] | Compound metabolized | Compound NOT metabolized | Compound metabolized | Compound NOT metabolized | Compound NOT metabolized | Compound NOT metabolized | Compound NOT metabolized | Compound metabolized | Compound NOT metabolized | Compound NOT metabolized | Compound metabolized | Compound metabolized | Compound NOT metabolized | Compound NOT metabolized | Compound NOT metabolized | Compound NOT metabolized | Compound NOT metabolized | Compound NOT metabolized | Compound NOT metabolized | Compound NOT metabolized
